# Reference: patent publication US20220095617A1, “PLANT GROWTH REGULATING AGENT” (IDEMITSU KOSAN CO.,LTD., priority 2019, published 2022)
# How the values were obtained:
# lettuce (Green Wave) [1] = assay: Example 22: pH stress Petri dish test (lettuce); type: in vivo; settings: for Root length, Increase rate: non-addition group = 100.0
# Rice (Koshihikari) seeds = assay: Example 5: High-temperature stress Petri dish test (rice seeds); type: in vivo; settings: for Germination rate, Increase rate: non-addition group = 100.0; for Germination rate, Average: seeds 65° C. hot water 10 minutes, 28° C. 5 days
# Experimental: (§1) Rice (Koshihikari) seeds were soaked in hot water at 65° C. for 10 minutes to perform high-temperature treatment. […] A group similarly soaked in distilled water was provided as a non-addition group. After the soaking treatment, the seeds were dried in air, and then 20 seeds were sown on each of shallow Petri dishes in which qualitative filter paper was placed. To the filter paper in each Petri dish, 5 mL of distilled water was uniformly added dropwise. […] For each group, three measurement results were obtained (N=3).
# lettuce (Green Wave) [2] = assay: Example 17: Growth-promoting effect (lettuce, seed treatment); type: in vivo; settings: for Increase/decrease of above-ground part / Increase/decrease of underground part: non-addition group = 100%; for Weight of above-ground part FW / Weight of underground part FW: 25° C., 28 days
# Experimental: For lettuce (Green Wave, Takii & Co., Ltd.), seed dressing was carried out by application, at 5% seed weight, of a dilution of hesperidin prepared at a final concentration of 1 to 100 ppm (using water as the solvent). The dressed lettuce seeds were sown on a cell tray filled with seedling culture soil (manufactured by Nihon Hiryo Co., Ltd.; “Naebijin N100”). […]
# Bent grass (Penncross) = assay: Example 8: High-temperature stress pot test (bent grass); type: in vivo; settings: for Weight of above-ground part, Increase rate: non-addition group = 100.0; for Weight of above-ground part, Average: greenhouse average daytime 50° C., 7 days, fresh weight
# Experimental: Bent grass (Penncross, Snow Brand Seed Co., Ltd.) was uniformly sown on pots filled with seedling culture soil (manufactured by Katakura & Co-op Agri Corporation; Kumiai seedling culture soil for gardening Genkikun No. 1) (soil volume, 100 ml), and cultivated for 14 to 20 days, followed by evenly cutting the above-ground part to a length of about 1 cm on the day before application of hesperidin. […] A non-addition group was similarly subjected to drenching treatment using distilled water. High-temperature treatment was carried out by cultivation in a glass greenhouse (average daytime temperature, […]) for 7 days, and then the fresh weight of the above-ground part was evaluated. For each group, three measurement results were obtained (N=3).
# [3] = system: Cucumber (Hanjirofushinari); assay: Example 13: Salt stress pot test (cucumber); type: in vivo; settings: foliar spraying 1 ppm (dilution of wettable powder formulation)
# Experimental: Cucumber (Hanjirofushinari, Takii & Co., Ltd.) was sown on pots filled with seedling culture soil (manufactured by Katakura & Co-op Agri Corporation; Kumiai seedling culture soil for gardening Genkikun No. 1) (soil volume, 100 ml), and cultivated for 21 days. With a wettable powder formulation containing 1% hesperidin having the formulation composition shown in Table 11, a dilution was prepared such that the final concentration of hesperidin was 1 ppm. For each pot, 10 ml of the dilution was applied by foliar spraying. The cucumber was left to stand in a dilution whose final NaCl concentration was adjusted to 75 mM, and allowed to absorb water from the bottom. Cultivation was carried out in a greenhouse (20 to 25° C.) for 7 days, and then the fresh weight of the above-ground part was measured. For each group, six measurement results were obtained (N=6).
# lettuce (Green Wave) [4] = assay: Example 9: High-temperature stress pot test (lettuce); type: in vivo; settings: for Fresh weight of above-ground part, Increase rate / Fresh weight of underground part, Increase rate: non-addition group = 100.0; for Fresh weight of above-ground part, Average / Fresh weight of underground part, Average: greenhouse 35° C., 20 days
# Experimental: Immediately after the sowing, drenching treatment was carried out with 5 ml/well of a dilution of hesperidin prepared at a final concentration of 100 to 1000 ppm (using water as the solvent). A non-addition group was similarly subjected to drenching treatment using distilled water. High-temperature treatment was carried out by cultivation for 20 days in a greenhouse where the average daytime temperature was 35° C., and then the fresh weight of the above-ground part and the fresh weight of the underground part were evaluated. For each group, 15 to 20 measurement results were obtained (N=15 to 20).
# lettuce (Green Wave) [5] = assay: Example 2: High-temperature stress Petri dish test (lettuce), blending with neohesperidin; settings: 0.1 ppm
# Experimental: For seeds, 2% water agar medium (using water as the solvent), which was prepared such that hesperidin (Fujifilm Wako Pure Chemical Corporation; special-grade reagent) and neohesperidin (Fujifilm Wako Pure Chemical Corporation; special-grade reagent) were contained at the predetermined final concentrations shown in Table 2, was filled into square Petri dishes (“model number: D-210-16”, manufactured by As One Corporation). Before high-temperature treatment, lettuce (Green Wave, Takii & Co., Ltd.) was sown on 2% water agar medium, and lettuce seedlings on day 2 after the sowing were transplanted to the above-described agar medium to which the hesperidin and/or the like was/were added. At the time of the transplantation, the tip of the root was marked. Each Petri dish after the transplantation was placed in an incubator (“model number: FLI-2010A”, manufactured by EYELA) at an angle of 45° with respect to the bottom surface, and high-temperature treatment was carried out at 42° C. for 1.5 hours. Thereafter, culture was similarly performed at 23° C. for 2 days, and then the increase in the root length was evaluated in terms of elongation from the tip of the root of each seedling at the time of the transplantation. In addition, for evaluation of the effect of the mixture of hesperidin and neohesperidin in normal cultivation, culture was similarly performed at 23° C. without performing the high-temperature treatment, followed by evaluation of the increase in the root length. […] The Colby's equation is as follows.
# E=(x+y)−(x·y)/100 Colby's equation:
# E: Expected root length x: Root length in the case of application of hesperidin alone y: Root length in the case of application of neohesperidin alone For each group, 15 measurement results were obtained (N=15).
# lettuce (Green Wave) [6] = assay: Example 4: High-temperature stress Petri dish test (lettuce), comparison with flavonoids; type: in vivo; settings: 0.1 ppm
# Wheat (Satonosora) = assay: Example 15: Growth-promoting effect (wheat); type: in vivo; settings: for Increase/decrease of above-ground part / Increase/decrease of underground part: non-addition group = 100%; for Weight of above-ground part FW / Weight of underground part FW: 25° C., 14 days
# Experimental: Wheat (Satonosora) was sown on pots filled with seedling culture soil (manufactured by Katakura & Co-op Agri Corporation; Kumiai seedling culture soil for gardening Genkikun No. 1) (soil volume, 100 ml). After […] of the germination, drenching treatment was carried out with 5 ml each of dilutions of hesperidin prepared at final concentrations of 10 to 33 ppm (using water as the solvent). […]
# [7] = system: Carrot (US Harumakigosun carrot) seeds; assay: Example 7: High-temperature stress Petri dish test (carrot seeds); type: in vivo; settings: for Germination rate, Increase rate: non-addition group = 100.0; for Germination rate, Average: seeds 55° C. hot water 20 minutes, 23° C. 7 days
# Experimental: as §1, with “Carrot (US Harumakigosun carrot, The Yokohama Nursery Co., Ltd.)” for “Rice (Koshihikari)”, “55°” for “65°”, “20” for “10”, “3” for “5”
# [8] = seed treatment (dressing) 1 ppm
# [9] = seed treatment (dressing) 10 ppm
# [10] = seed treatment (dressing) 100 ppm
# [11] = High-temperature treatment (42° C., 1.5 hours)
smiles,measurement,setting,value
COc1ccc([C@@H]2CC(=O)c3c(O)cc(O[C@@H]4O[C@H](CO[C@@H]5O[C@@H](C)[C@H](O)[C@@H](O)[C@H]5O)[C@@H](O)[C@H](O)[C@H]4O)cc3O2)cc1O [Hesperidin],"Root length, Average","lettuce (Green Wave) [1]; Acid stress (pH 4), 0.1 ppm",17.69 mm
same,"Root length, Increase rate","lettuce (Green Wave) [1]; Acid stress (pH 4), 0.1 ppm",121.9%
same,"Root length, Average","lettuce (Green Wave) [1]; Acid stress (pH 4), 1 ppm",18.03 mm
same,"Root length, Increase rate","lettuce (Green Wave) [1]; Acid stress (pH 4), 1 ppm",124.3%
same,"Root length, Average","lettuce (Green Wave) [1]; Alkali stress (pH 9), 0.1 ppm",17.55 mm
same,"Root length, Increase rate","lettuce (Green Wave) [1]; Alkali stress (pH 9), 0.1 ppm",114.1%
same,"Root length, Average","lettuce (Green Wave) [1]; Alkali stress (pH 9), 1 ppm",17.40 mm
same,"Root length, Increase rate","lettuce (Green Wave) [1]; Alkali stress (pH 9), 1 ppm",113.1%
same,"Germination rate, Increase rate",Rice (Koshihikari) seeds; 1 ppm,131.5%
same,"Germination rate, Increase rate",Rice (Koshihikari) seeds; 10 ppm,146.6%
same,"Germination rate, Increase rate",Rice (Koshihikari) seeds; 100 ppm,134.0%
same,"Germination rate, Average",Rice (Koshihikari) seeds; then soaked 1 hour at 1 ppm,77.3%
same,"Germination rate, Average",Rice (Koshihikari) seeds; then soaked 1 hour at 10 ppm,86.2%
same,"Germination rate, Average",Rice (Koshihikari) seeds; then soaked 1 hour at 100 ppm,78.8%
same,Increase/decrease of above-ground part,lettuce (Green Wave) [2]; 1 ppm,109%
same,Increase/decrease of underground part,lettuce (Green Wave) [2]; 1 ppm,133%
same,Increase/decrease of above-ground part,lettuce (Green Wave) [2]; 10 ppm,113%
same,Increase/decrease of underground part,lettuce (Green Wave) [2]; 10 ppm,142%
same,Increase/decrease of above-ground part,lettuce (Green Wave) [2]; 100 ppm,149%
same,Increase/decrease of underground part,lettuce (Green Wave) [2]; 100 ppm,126%
same,Weight of above-ground part FW,lettuce (Green Wave) [2]; [8],27.4 mg/individual
same,Weight of underground part FW,lettuce (Green Wave) [2]; [8],7.6 mg/individual
same,Weight of above-ground part FW,lettuce (Green Wave) [2]; [9],28.3 mg/individual
same,Weight of underground part FW,lettuce (Green Wave) [2]; [9],8.1 mg/individual
same,Weight of above-ground part FW,lettuce (Green Wave) [2]; [10],37.4 mg/individual
same,Weight of underground part FW,lettuce (Green Wave) [2]; [10],7.2 mg/individual
same,"Weight of above-ground part, Increase rate",Bent grass (Penncross); 0.06 ppm,151.7%
same,"Weight of above-ground part, Increase rate",Bent grass (Penncross); 0.6 ppm,162.2%
same,"Weight of above-ground part, Average",Bent grass (Penncross); drenching 0.06 ppm,3.3 g
same,"Weight of above-ground part, Average",Bent grass (Penncross); drenching 0.6 ppm,3.6 g
same,Death of the above-ground part (FIG. 1),"Bent grass (Penncross); groups subjected to drenching treatment (0.06 to 0.6 ppm), after high-temperature treatment",no death was found
same,Fresh weight of above-ground part,[3]; Normal cultivation,4.2 g
same,Fresh weight of above-ground part,"[3]; Salt treatment (75 mM NaCl, 7 days)",3.6 g
same,"Fresh weight of above-ground part, Increase rate",lettuce (Green Wave) [4]; 100 ppm,114.4%
same,"Fresh weight of underground part, Increase rate",lettuce (Green Wave) [4]; 100 ppm,122.8%
same,"Fresh weight of above-ground part, Increase rate",lettuce (Green Wave) [4]; 1000 ppm,109.1%
same,"Fresh weight of underground part, Increase rate",lettuce (Green Wave) [4]; 1000 ppm,93.9%
same,"Fresh weight of above-ground part, Average",lettuce (Green Wave) [4]; drenching 100 ppm,0.76 g
same,"Fresh weight of underground part, Average",lettuce (Green Wave) [4]; drenching 100 ppm,0.29 g
same,"Fresh weight of above-ground part, Average",lettuce (Green Wave) [4]; drenching 1000 ppm,0.72 g
same,"Fresh weight of underground part, Average",lettuce (Green Wave) [4]; drenching 1000 ppm,0.22 g
same,Root length,lettuce (Green Wave) [5]; [11],10.9 mm
same,Root length,lettuce (Green Wave) [5]; Normal cultivation,19.2 mm
same,Root length,lettuce (Green Wave) [6]; [11],16.5 mm
same,Root length,lettuce (Green Wave) [6]; Normal cultivation,23.1 mm
same,Increase/decrease of above-ground part,Wheat (Satonosora); 10 ppm,123%
same,Increase/decrease of underground part,Wheat (Satonosora); 10 ppm,107%
same,Increase/decrease of above-ground part,Wheat (Satonosora); 33 ppm,116%
same,Increase/decrease of underground part,Wheat (Satonosora); 33 ppm,104%
same,Weight of above-ground part FW,Wheat (Satonosora); drenching 10 ppm,364.9 mg/individual
same,Weight of underground part FW,Wheat (Satonosora); drenching 10 ppm,391.6 mg/individual
same,Weight of above-ground part FW,Wheat (Satonosora); drenching 33 ppm,345.4 mg/individual
same,Weight of underground part FW,Wheat (Satonosora); drenching 33 ppm,382.6 mg/individual
same,"Germination rate, Increase rate",[7]; 100 ppm,215.8%
same,"Germination rate, Increase rate",[7]; 1000 ppm,173.7%
same,"Germination rate, Average",[7]; then soaked at 100 ppm,68.3%
same,"Germination rate, Average",[7]; then soaked at 1000 ppm,55.0%
